Results as given in paper PMC10653776, “New dammarane-type triterpenoids from hydrolyzate of total Gynostemma pentaphyllum saponins with protein tyrosine phosphatase 1B inhibitory activity” (Journal of Enzyme Inhibition and Medicinal Chemistry, 2023).

Assays:
PTP1B [1] = molecular target: T1, PTP1B (Homo sapiens, UniProt P18031); assay: PTP1B inhibition assay (pNPP colorimetric method); assay type: biochemical; set-up: purchased Abcam (Shanghai) Trading Co., Ltd. ab51277; conditions: for IC50: pNPP substrate, 37 °C 30 min, means ± SD of three replications; for PTP1B inhibitory activity (in words): pNPP method, compared with positive control NaVO4
T1 sequence (P18031 1-435): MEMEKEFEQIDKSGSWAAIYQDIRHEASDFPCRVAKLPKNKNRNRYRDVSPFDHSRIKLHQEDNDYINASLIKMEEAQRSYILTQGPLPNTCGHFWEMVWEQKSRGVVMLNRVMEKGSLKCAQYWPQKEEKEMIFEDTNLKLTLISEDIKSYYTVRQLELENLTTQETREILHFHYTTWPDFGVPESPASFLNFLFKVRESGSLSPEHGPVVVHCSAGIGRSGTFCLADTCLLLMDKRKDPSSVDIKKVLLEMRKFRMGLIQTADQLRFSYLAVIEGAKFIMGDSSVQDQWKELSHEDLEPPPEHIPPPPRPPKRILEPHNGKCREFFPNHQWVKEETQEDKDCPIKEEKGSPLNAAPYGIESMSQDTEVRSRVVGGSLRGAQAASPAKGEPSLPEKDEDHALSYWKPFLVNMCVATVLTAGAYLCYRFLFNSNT
Procedure: In the separation process, the column chromatography as performed by silica-gel (100–200 and 300–400 mesh, Qingdao Marine Chemical Co., Qingdao, China), and Sephadex LH-20 (GE Healthcare, Marlborough, MA). The TLC detection was carried by heating a silica gel plate (Qingdao Marine Chemical Co., Qingdao, China) spayed with 10% H2SO4 in ethanol. The 1D and 2D NMR spectra were recorded on a Varian INOVA AS 400 instrument (Agilent, Santa Clara, USA) with TMS as the internal standard. The chemical shift was shown in ppm while coupling constant J in Hz. Deuterated solvent ([…]) was purchased from Sigma Aldrich for NMR analysis. HR-ESI-MS data were collected by a UPLC–Q/TOF-MS system including a 1290 Infinity II UPLC system (Agilent, USA) and an Agilent 6545 Q/TOF-MS system (Agilent, MA, USA). Optical rotations were measured by a JASCO P-1020 polarimeter (Kyoto, Japan). The single crystal X-ray diffraction data were obtained by a SuperNova, Dual, Cu at zero, AtlasS2 diffractometer (Rigaku, Japan). Besides, other analytical grade chemical solvent was obtained from Jinhuada Chemical Co., ltd. Guangzhou, P.R. China. Recombinant human PTP1B protein (ab51277) was purchased from Abcam (Shanghai) Trading Co., Ltd. All chemical reagents used in the enzymatic assays were produced by Laibo Chemicals Industries, Ltd.
The enzymatic assays of protein tyrosine phosphatase 1B (PTP1B) were referred. The PTP1B inhibitory activities of test compounds were examined in 96-well plates using the colorimetric method. […] The reaction system was 100 μL: MOPS (25 mM, pH = 7.0), DTT (2 mM), EDTA (1 mM, pH = 7.0), NaCl (0.1 M), PTP 1B (25 nM), and disodium-4-nitrophenyl phosphate (pNPP, 2 mM), and the enzyme-catalysed reaction was terminated by the addition of 1.0 M NaOH after incubation at 37 °C for 30 min. The inhibition efficiency of the compounds on the enzymatic activity of PTP1B was assayed by detecting the amount of the hydrolysed product, p-nitrophenol (p-NP) at 405 nm using a microplate reader. The PTP1B inhibition activity was expressed as inhibition (%) and was calculated as Equation (1): (1) Inhibition (%)=(1−ΔAsample/ΔAcontrol)×100%

PTP1B [2] = molecular target: T1, PTP1B; assay: PTP1B inhibition kinetic assay (Lineweaver-Burk and Dixon plots); assay type: biochemical; conditions: for Ki: Dixon plot method, means ± SD of three replications; for type of inhibition against PTP1B: Lineweaver-Burk double reciprocal plot
Procedure: The kinetic behaviour of the active compounds against PTP1B and the corresponding inhibition constants (Ki values) were investigated using Lineweaver-Burk double reciprocal plots and Dixon plots. Different concentrations of p-NPP substrates (1, 2, 5 and 10 mM) were subjected to enzymatic reactions with various concentrations of active compounds (0, 0.5, 1.0 and 5.0 μM for 18) and 100 nM PTP1B in 96-well plates. The absorbance of the reaction mixture was recorded every 3 min by a plate reader. The enzymatic velocity of the enzyme reaction was calculated based on the time-Δabs plot. All assays were performed in triplicate.

Row | IC50 (PTP1B [1]) | Structure (SMILES) | PTP1B inhibitory activity (in words) (PTP1B [1]) | Ki (PTP1B [2]) | type of inhibition against PTP1B (PTP1B [2])
1 | 20.3 ± 2.49 µM | CC1(C)CCC=C(C(=O)C2CCC3(C)C2CCC2C4=C(CCC23C)C(C)(C)C2CCC4O2)O1 (stereo not shown) [Compound 1, Gypensapogenin I] | – | – | –
2 | 33.9 ± 0.83 µM | CC(C)=CC(=O)CC(C(=O)O)[C@H]1CC[C@]2(C)[C@@H]1CCC1[C@@]3(C)CC[C@H](O)C(C)(C)C3CC[C@]12C (stereo partly shown) [Compound 5, Gypensapogenin V] | – | – | –
3 | 19.6 ± 1.48 µM | CC(C)=C1CC=C([C@H]2CC[C@]3(C)[C@@H]2CC[C@@H]2C4=C(CC[C@]23C)C(C)(C)[C@@H]2CC[C@H]4O2)C1=O [Compound 6, Gypensapogenin A] | – | – | –
4 | 29.4 ± 2.48 µM | CC(C)=C1CC([C@H]2CC[C@]3(C)[C@@H]2CC[C@@H]2C4=C(CC[C@]23C)C(C)(C)[C@@H]2CC[C@H]4O2)=CC1=O [Compound 7, Gypensapogenin B] | – | – | –
5 | 24.6 ± 2.28 µM | CC(C)=C1CC=C([C@H]2CC[C@]3(C)[C@@H]2CC[C@@H]2[C@@]4(C)CC[C@H](O)C(C)(C)[C@@H]4CC[C@]23C)C1=O [Compound 8, Gypensapogenin C] | – | – | –

Row | Structure (SMILES) | IC50 (PTP1B [1]) | PTP1B inhibitory activity (in words) (PTP1B [1]) | Ki (PTP1B [2]) | type of inhibition against PTP1B (PTP1B [2])
6 | CC(C)=C1CC([C@H]2CC[C@]3(C)[C@@H]2CCC2[C@@]4(C)CC[C@H](O)C(C)(C)C4CC[C@]23C)=CC1=O (stereo partly shown) [Compound 2, Gypensapogenin II] | 10.5 ± 1.07 µM | more inhibitory activity against PTP1B than the positive control | – | –
7 | CC(C)=CCC[C@@](O)(C(=O)O)[C@H]1CC[C@]2(C)[C@@H]1CCC1[C@@]3(C)CC[C@H](O)C(C)(C)C3CC[C@]12C (stereo partly shown) [Compound 3, Gypensapogenin III] | 2.34 ± 0.24 µM | more inhibitory activity against PTP1B than the positive control | 1.16 ± 0.47 µM | competitive inhibitors
8 | CC(C)(O)CC(=O)CC(C(=O)O)[C@H]1CC[C@]2(C)[C@@H]1CCC1[C@@]3(C)CC[C@H](O)C(C)(C)C3CC[C@]12C (stereo partly shown) [Compound 4, Gypensapogenin IV] | 4.26 ± 0.42 µM | more inhibitory activity against PTP1B than the positive control | 2.44 ± 0.09 µM | competitive inhibitors
9 | CC(C)=C[C@H]1C=C([C@H]2CC[C@]3(C)[C@@H]2CC[C@@H]2[C@@]4(C)CC[C@H](O)C(C)(C)[C@@H]4CC[C@]23C)C(=O)O1 [Compound 9, Gypensapogenin D] | 7.77 ± 0.85 µM | more inhibitory activity against PTP1B than the positive control | 5.58 ± 0.7 µM | competitive inhibitors
